Series [1] has as its target T1, Transient receptor potential cation channel subfamily A member 1 (Homo sapiens, UniProt O75762). Nature of the series: Activation of human TRPA1 expressed in HEK293 cells assessed as induction of outward current at 10 uM at -70 to +70 mV by whole cell patch clamp assay. The series is classed as cell-based. (The patch-clamp technique gives a direct electrical read-out from membranes.)

Series [2] addresses T1, Transient receptor potential cation channel subfamily A member 1. Nature of the series: Activation of human TRPA1 expressed in HEK293 cells assessed as increase in calcium level at 20 uM by fura2/AM dye based single cell based plate reader analysis.
Series [3] deals with DRG neuron. Nature of the series: Increase in calcium level in DRG neurons isolated from TRPA1 deficient mouse at 10 uM by fura2/AM dye based plate reader analysis. The class given is functional, cell-based.
Series [4] addresses Transient receptor potential cation channel subfamily A member 1 (Mus musculus) (UniProt Q8BLA8). Nature of the series: Activation of TRPA1 in wild type mouse DRG neurons assessed as increase in calcium level at 10 uM treated after 10 uM Plumbagin pre-treatment by fura2/AM dye based plate reader analysis relative to control.
The target in series [5] is T1, Transient receptor potential cation channel subfamily A member 1. Nature of the series: Activation of human TRPA1 expressed in HEK293 cells assessed as induction of inward current at 10 uM at -70 to +70 mV by whole cell patch clamp assay. The class given is cell-based.
The target is the same in series [6]. Nature of the series: Activation of human TRPA1 expressed in HEK293 cells assessed as increase in calcium level at 20 uM in presence of TRPA1 channel blocker A-967079 by fura2/AM dye based single cell based plate reader analysis.
Series [7] deals with HEK293. Nature of the series: Increase in calcium level in HEK293 cells at 20 uM by fura2/AM dye based single cell based plate reader analysis. The class given is functional. As to conditions: Homo sapiens.
For series [8], the target named is Transient receptor potential cation channel subfamily A member 1 (Mus musculus) (UniProt Q8BLA8). Nature of the series: Activation of TRPA1 in wild type mouse DRG neurons assessed as increase in calcium level at 10 uM by fura2/AM dye based plate reader analysis relative to control.
Series [9] has as its target T1, Transient receptor potential cation channel subfamily A member 1. Nature of the series: Activation of human TRPA1 expressed in HEK293 cells assessed as increase in calcium level by fluo-4 dye based plate reader analysis. The series is classed as cell-based.
For series [10] the target is unchanged. Nature of the series: Activation of human TRPA1 expressed in HEK293 cells assessed as induction of current at 10 uM at -70 to +70 mV by whole cell patch clamp assay. The class given is cell-based.
The target is the same in series [11]. Nature of the series: Activation of human TRPA1 expressed in HEK293 cells assessed as induction of inward current at 10 uM at -70 to +70 mV in presence of TRPA1 channel blocker A-967079 by whole cell patch clamp assay. The class given is cell-based.
Series [12] has the same target. Nature of the series: Activation of human TRPA1 expressed in HEK293 cells assessed as induction of outward current at 10 uM at -70 to +70 mV in presence of TRPA1 channel blocker A-967079 by whole cell patch clamp assay. The series is classed as cell-based.
For series [13], the system named is HEK293. Nature of the series: Increase in calcium level in HEK293 cells at 0.1 to 100 uM by fluo-4 dye based plate reader analysis. The class given is functional, cell-based. As to conditions: Homo sapiens.
A short description of series [14]: Lipophilicity, logP of compound. Conditions: octanol/water.
Series [15] concerns the target T1, Transient receptor potential cation channel subfamily A member 1. Nature of the series: Activation of human TRPA1 expressed in HEK293 cells assessed as induction of current at 1 uM at -70 to +70 mV by whole cell patch clamp assay. The class given is cell-based.
Series [16] has the same target. Nature of the series: Activation of human TRPA1 expressed in HEK293 cells assessed as induction of current at 1 to 10 uM at +70 mV in presence of intracellular catalase by whole cell patch clamp assay. The class given is cell-based.
The target is the same in series [17]. Nature of the series: Activation of human TRPA1 expressed in HEK293 cells assessed as induction of current at 1 to 10 uM at +70 mV in presence of extracellular catalase by whole cell patch clamp assay. The series is classed as cell-based.
For series [18] the target is unchanged. Nature of the series: Decrease in TRPA1 current amplitude in human TRPA1 expressed HEK293 cells at 10 uM at high voltage by whole cell patch clamp assay. The series is classed as cell-based.

In general, EC50 refers to the concentration giving half of the maximal effect. Usually logP stands for a log measure of how a compound divides between an organic and an aqueous phase.

Each structure is given as a SMILES string. Calls of active or inactive are those of the source. No cut-off for these calls is given here.

Transient receptor potential cation channel subfamily A member 1 (Mus musculus), sequence (Q8BLA8 whole entry): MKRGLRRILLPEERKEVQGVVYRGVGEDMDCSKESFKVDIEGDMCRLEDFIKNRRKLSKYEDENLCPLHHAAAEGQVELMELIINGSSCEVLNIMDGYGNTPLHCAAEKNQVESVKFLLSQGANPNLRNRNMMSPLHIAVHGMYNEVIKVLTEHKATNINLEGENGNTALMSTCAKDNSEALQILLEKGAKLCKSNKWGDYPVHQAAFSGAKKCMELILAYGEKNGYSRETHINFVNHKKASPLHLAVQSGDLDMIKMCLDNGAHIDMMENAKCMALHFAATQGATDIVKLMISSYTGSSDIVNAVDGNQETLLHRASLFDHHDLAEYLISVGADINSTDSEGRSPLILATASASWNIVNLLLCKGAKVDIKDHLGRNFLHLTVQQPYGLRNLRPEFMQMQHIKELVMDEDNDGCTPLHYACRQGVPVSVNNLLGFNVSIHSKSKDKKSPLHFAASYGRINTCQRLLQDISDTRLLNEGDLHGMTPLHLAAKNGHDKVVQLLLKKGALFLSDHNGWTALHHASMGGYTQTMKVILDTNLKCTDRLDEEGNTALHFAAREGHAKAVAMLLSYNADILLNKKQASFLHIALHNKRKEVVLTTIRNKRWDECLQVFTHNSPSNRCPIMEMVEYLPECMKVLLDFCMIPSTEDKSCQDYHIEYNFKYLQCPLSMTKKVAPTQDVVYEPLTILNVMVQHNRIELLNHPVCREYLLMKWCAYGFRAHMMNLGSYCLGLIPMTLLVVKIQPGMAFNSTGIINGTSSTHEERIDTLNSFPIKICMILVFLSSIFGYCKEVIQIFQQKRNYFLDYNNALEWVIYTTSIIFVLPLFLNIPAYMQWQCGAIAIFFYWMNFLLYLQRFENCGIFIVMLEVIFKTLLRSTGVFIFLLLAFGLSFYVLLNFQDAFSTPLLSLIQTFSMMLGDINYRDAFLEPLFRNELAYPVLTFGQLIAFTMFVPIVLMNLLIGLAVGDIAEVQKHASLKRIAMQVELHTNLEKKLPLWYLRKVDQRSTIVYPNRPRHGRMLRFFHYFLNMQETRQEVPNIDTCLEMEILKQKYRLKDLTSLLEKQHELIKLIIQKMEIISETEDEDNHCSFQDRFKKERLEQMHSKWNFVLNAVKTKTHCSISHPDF
T1 sequence (O75762 whole entry): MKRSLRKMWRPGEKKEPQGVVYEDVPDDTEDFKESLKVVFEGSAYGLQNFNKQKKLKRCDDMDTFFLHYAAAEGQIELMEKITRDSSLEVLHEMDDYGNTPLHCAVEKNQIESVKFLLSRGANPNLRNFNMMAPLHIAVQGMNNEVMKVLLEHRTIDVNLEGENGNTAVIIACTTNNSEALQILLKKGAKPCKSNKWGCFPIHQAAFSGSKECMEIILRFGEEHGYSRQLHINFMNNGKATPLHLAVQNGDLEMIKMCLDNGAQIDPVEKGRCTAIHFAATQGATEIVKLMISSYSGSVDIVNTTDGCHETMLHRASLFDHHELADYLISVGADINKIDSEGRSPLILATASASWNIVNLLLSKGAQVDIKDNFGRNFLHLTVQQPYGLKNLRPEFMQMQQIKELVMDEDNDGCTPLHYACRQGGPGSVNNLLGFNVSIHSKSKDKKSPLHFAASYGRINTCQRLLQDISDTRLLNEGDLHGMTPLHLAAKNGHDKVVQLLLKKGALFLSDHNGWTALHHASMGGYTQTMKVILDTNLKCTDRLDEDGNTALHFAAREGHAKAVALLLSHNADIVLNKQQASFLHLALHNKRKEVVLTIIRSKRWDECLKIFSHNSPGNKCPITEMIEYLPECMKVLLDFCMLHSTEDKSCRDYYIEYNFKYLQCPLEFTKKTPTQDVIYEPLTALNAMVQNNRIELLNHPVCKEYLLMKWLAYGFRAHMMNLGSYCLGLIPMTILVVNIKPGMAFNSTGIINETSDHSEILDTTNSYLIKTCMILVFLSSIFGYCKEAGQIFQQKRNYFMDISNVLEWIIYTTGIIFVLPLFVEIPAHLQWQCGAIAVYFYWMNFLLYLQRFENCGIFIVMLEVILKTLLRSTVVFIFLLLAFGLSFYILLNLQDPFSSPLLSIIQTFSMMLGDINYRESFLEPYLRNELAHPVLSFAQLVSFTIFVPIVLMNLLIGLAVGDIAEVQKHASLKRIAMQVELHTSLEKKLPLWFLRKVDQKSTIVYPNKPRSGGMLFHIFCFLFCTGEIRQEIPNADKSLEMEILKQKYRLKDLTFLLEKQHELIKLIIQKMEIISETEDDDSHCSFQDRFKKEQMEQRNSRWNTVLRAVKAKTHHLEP

Take `C=CCN=C=S`: the outcome in series [1], in [2] and in [5] was Active. Further, the result in [3] and in series [4] was inactive.

For `CC(C)=CCC/C(C)=C/COc1ccc2ccc(=O)oc2c1`, the outcome in [2] was Active.

Regarding `COc1cc(/C=C/C(=O)O)ccc1OC/C=C(\C)CCC=C(C)C`, the result in series [2] was Active.

In the case of `COc1cc(/C=C/C=O)ccc1OC/C=C(\C)CCC=C(C)C`, the outcome in series [6] and in [7] was inactive. Further, in [2], the outcome was Active.

As to `O=C1C=C(O)C(=O)c2ccccc21`, the result in [2] was Active.

Turning to `COc1cc(/C=C/C=O)ccc1OCC=C(C)C` [BOROPINAL], the result in series [6], in series [8], in [7] and in series [10] was inactive. Further, the EC50 in series [9] was 9800 nM. In [2], the outcome was Active.

As to `O=C1C=CC(=O)c2c(O)cccc21` [JUGLONE], the result in series [6], in series [11], in series [12], in series [7] and in [13] was inactive. In addition, in series [9], the 50% effective concentration (EC50) was determined as 1700 nM. The result in series [1], in series [2] and in [5] was Active.

On to `CC1=CC(=O)c2c(O)cccc2C1=O` [PLUMBAGIN], for which the result in series [6], in series [15], in [7] and in series [3] was inactive. Besides, the Activity is 50% in series [8], 93.5 pA/pF in series [16] and 65 pA/pF in series [17]. In addition, the half-maximal effective concentration (EC50) in series [9] worked out at 460 nM. This compound also yielded a logP in series [14] of 3.69. Moreover, the result in series [2] and in [18] was Active.

Source of the values: ChEMBL document CHEMBL4425086 (J Nat Prod, 2016).
